Assay results from US11168092B2 (priority 2019, dated 2021).
Values joined by “and” are separate entries in the source; they are usually repeats but may differ in a detail not shown here. Equal entries are not always repeated.

Key:
Assay type in all cases: cell-based
Parameters in all cases: unit not given here
[1] = system: colorectal cancer cells (HCT15)
[2] = system: skin cancer cells (SK-MEL-2)
[3] = system: ovarian cancer cells (SK-OV-3)
[4] = system: lung cancer cells (A549)

CC1=CC(=O)OCC23CCC(C)(O)C4CC5(O)C(CC(OC(=O)C=CC=CC(C(C)O)OCC1)C52C)OC43 [compound 1, (1R,4Z,6E,8R,12E,16aR,19S,20S,20aR,22R,23S,23aS)-19,23-dihydroxy-8-((R)-1-hydroxyethyl)-12,19,23a-trimethyl-10,11,17,18,19,20,20a,22,23,23a-decahydro-1H-1,22:20,23-dimethano[1,6,12]trioxacyclooctadecino[3,4-d]chromene-3,14(8H,16H)-dione]
Anticancer activity (value at given concentration) [1]: 103.41 and 91.11 and 101.55 and 101.52 and 102.70 and 101.58
Anticancer activity (value at given concentration) [2]: 96.98 and 91.60 and 95.73 and 101.17 and 96.51 and 96.60
Anticancer activity (value at given concentration) [3]: 103.77 and 87.76 and 98.54 and 100.24 and 89.90 and 95.08
Anticancer activity (value at given concentration) [4]: 97.91 and 93.12 and 93.03 and 94.31 and 92.44 and 95.94
